Source: patent US9714239B2, “N-phenyl-lactam derivatives capable of stimulating neurogenesis and their use in the treatment of neurological disorders” (Hoffmann-La Roche Inc., priority 2014, dated 2017)

These compounds were tested on human embryonic stem cell derived neural stem cells (NSCs) (assay: Neurogenesis assay: neural stem cell proliferation assay). Conditions: 96 h, compound concentration at which 150% activity of control (100%) is reached, increase in cells based on ATP levels (CellTiterGlo), 4 days incubation, dose response 8 μM to 8 nM.
Experimental: Neural Stem Cell Proliferation Assay
Neurogenic properties of small molecules are determined based on the proliferation of human embryonic stem cell derived neural stem cells (NSCs) which were derived via a dual smad inhibition as previously described (Chambers, S. M., et al., Highly efficient neural conversion of human ES and iPS cells by dual inhibition of SMAD signaling, Nature biotechnology, 2009 27(3): p. 275-80.).
Compounds response is measured by the increase in cells based on ATP levels (Promega:CellTiterGlo®) after an incubation period of 4 days. NSCs are thawed and expanded over 3 passages. On the 14th day, NSCs are seeded in Polyornithin/Laminin coated 384 well plates at a cell density of 21,000 cells/cm^2 in a media volume of 38 μl.
4 hours after cell seeding, compound solutions are added at a volume of 2 μl. Stock solutions of the compounds (water, 5% DMSO) are diluted to obtain a dose response (11 points, dilution factor is 2), ranging from 8 μM to 8 nM. Controls are run to consistently determine the neurogenic properties of the cells:
Negative (neutral) control is cell culture Media (final DMSO concentration: 0.25%).
1. cell culture Media+100 ng/ml FGF2 (final DMSO concentration: 0.1%)
2. cell culture Media+20 ng/ml EGF (final DMSO concentration: 0.1%)
3. cell culture Media+100 ng/ml Wnt3a (final DMSO concentration: 0.1%)
After 4 days incubation at 37° C., 5% CO2, the amount of ATP per well is quantified. The ATP concentration is proportional to the cell number. ATP is quantified by using the Promega CellTiterGlo® kit. The CellTiterGlo® reagents contain a cell lysis buffer, a thermo stable luciferase (UltraGlo™ recombinant luciferase), magnesium and luciferin. Luciferin reacts with ATP producing oxyluciferin, AMP and light. The luminescence signal is proportional to the ATP content.
The value of negative (neutral) control is determined for each assay plate by taking the average of 16 negative control wells. The neurogenic compound response is calculated for each compound as (compound/Negative Control)*100. The values of EC150 from the dose response curve are determined for each test compound. The EC150 is the compound concentration at which 150% activity of control (100%) is reached.

First: CCC1(c2ccccc2)CCN(c2ccc(-c3cnco3)c(OC)c2)C1=O (stereo not drawn) [Example 1, 3-Ethyl-1-(3-methoxy-4-(oxazol-5-yl)phenyl)-3-phenylpyrrolidin-2-one]
Second: COc1cc(N2CCC(c3ccccc3)C2=O)ccc1-c1cnco1 (stereo not drawn) [Example 8, 1-(3-Methoxy-4-oxazol-5-yl-phenyl)-3-phenyl-pyrrolidin-2-one]
The EC (150% of control) of the first is 6.9-fold higher: 3.23 µM for the first, 0.471 µM for the second.

Going from `O=C1N(Cc2ccccc2)CCN1c1ccc(-c2ccncc2)cc1` [Example 2, 1-Benzyl-3-(4-(pyridin-4-yl)phenyl)imidazolidin-2-one] to `COc1cccc(CN2CCN(c3ccc(-c4cn[nH]c4)cc3)C2=O)c1` [Example 27, 1-[(3-Methoxyphenyl)methyl]-3-[4-(1H-pyrazol-4-yl)phenyl]imidazolidin-2-one], the EC (150% of control) falls from 1.04 µM to 0.294 µM (3.5-fold).

First: COc1cccc(C2CCN(c3ccc(-c4cnco4)c(OC)c3)C2=O)c1 (stereo not drawn) [Example 3, 1-(3-Methoxy-4-oxazol-5-yl-phenyl)-3-(3-methoxyphenyl)pyrrolidin-2-one]
Second: COc1cccc(C2CCN(c3ccc(-c4cn[nH]c4)c(OC)c3)C2=O)c1 (stereo not drawn) [Example 24, 1-(3-Methoxy-4-(1H-pyrazol-4-yl)phenyl)-3-(3-methoxyphenyl)pyrrolidin-2-one]
The EC (150% of control) of the first is 2.7-fold higher: 0.0814 µM for the first, 0.0299 µM for the second.

Compared with `COc1cc(N2CCC(c3ccccc3Cl)C2=O)ccc1-c1cnco1` (stereo not drawn) [Example 4, 3-(2-Chlorophenyl)-1-(3-methoxy-4-oxazol-5-yl-phenyl)pyrrolidin-2-one], `COc1cc(N2CCC(c3ccccc3)C2=O)ccc1-c1cn[nH]c1` (stereo not drawn) [Example 12, 1-[3-Methoxy-4-(1H-pyrazol-4-yl)phenyl]-3-phenyl-pyrrolidin-2-one] is 16-fold lower in EC (150% of control): 0.678 µM for the first, 0.0414 µM for the second.

First: COc1cc(N2CCCN(Cc3ccccc3)C2=O)ccc1-c1cn[nH]c1 [Example 5, 1-Benzyl-3-[3-methoxy-4-(1H-pyrazol-4-yl)phenyl]hexahydropyrimidin-2-one]
Second: COc1cc(N2CCN(Cc3ccccc3)C2=O)ccc1-c1cn[nH]c1 [Example 9, 1-Benzyl-3-[3-methoxy-4-(1H-pyrazol-4-yl)phenyl]imidazolidin-2-one]
The EC (150% of control) of the first is 8.3-fold higher: 1.33 µM for the first, 0.161 µM for the second.

First: COc1cc(N2CCCN(Cc3ccccc3Cl)C2=O)ccc1-c1cn[nH]c1 [Example 6, 1-[(2-Chlorophenyl)methyl]-3-[3-methoxy-4-(1H-pyrazol-4-yl)phenyl]hexahydropyrimidin-2-one]
Second: COc1cc(N2CCN(Cc3ccccc3Cl)C2=O)ccc1-c1cn[nH]c1 [Example 10, 1-[(2-Chlorophenyl)methyl]-3-[3-methoxy-4-(1H-pyrazol-4-yl)phenyl]imidazolidin-2-one]
The EC (150% of control) of the first is 7.4-fold higher: 1.99 µM for the first, 0.27 µM for the second.

Compared with `COc1cccc(CN2CCCN(c3ccc(-c4cn[nH]c4)c(OC)c3)C2=O)c1` [Example 7, 1-[(3-Methoxyphenyl)methyl]-3-[3-methoxy-4-(1H-pyrazol-4-yl)phenyl]hexahydropyrimidin-2-one], `COc1cccc(CN2CCN(c3ccc(-c4cn[nH]c4)c(OC)c3)C2=O)c1` [Example 11, 1-[(3-Methoxyphenyl)methyl]-3-[3-methoxy-4-(1H-pyrazol-4-yl)phenyl]imidazolidin-2-one] is 4.8-fold lower in EC (150% of control): 0.114 µM for the first, 0.0239 µM for the second.

`O=C1C(c2ccccc2)CCN1c1ccc(-c2cn[nH]c2)cc1` (stereo not drawn) [Example 13, 3-Phenyl-1-[4-(1H-pyrazol-4-yl)phenyl]pyrrolidin-2-one] and `O=C1C(c2cccc(Cl)c2)CCN1c1ccc(-c2cn[nH]c2)cc1` (stereo not drawn) [Example 17, 3-(3-Chlorophenyl)-1-[4-(1H-pyrazol-4-yl)phenyl]pyrrolidin-2-one] are within 1.5-fold of each other in EC (150% of control): 0.205 µM for the first, 0.23 µM for the second.

First: COc1cccc(C2CCN(c3ccc(-c4cn[nH]c4)cc3)C2=O)c1 (stereo not drawn) [Example 14, 3-(3-Methoxyphenyl)-1-[4-(1H-pyrazol-4-yl)phenyl]pyrrolidin-2-one]
Second: O=C1C(c2ccc(Cl)cc2)CCN1c1ccc(-c2cn[nH]c2)cc1 (stereo not drawn) [Example 15, 3-(4-Chlorophenyl)-1-[4-(1H-pyrazol-4-yl)phenyl]pyrrolidin-2-one]
The EC (150% of control) of the first is 9.5-fold lower: 0.0405 µM for the first, 0.384 µM for the second.

First: O=C1C(c2ccc(F)cc2)CCN1c1ccc(-c2cn[nH]c2)cc1 (stereo not drawn) [Example 16, 3-(4-Fluorophenyl)-1-[4-(1H-pyrazol-4-yl)phenyl]pyrrolidin-2-one]
Second: COc1cc(N2CCC(c3cccc(F)c3)C2=O)ccc1-c1cn[nH]c1 (stereo not drawn) [Example 26, 3-(3-Fluorophenyl)-1-(3-methoxy-4-(1H-pyrazol-4-yl)phenyl)pyrrolidin-2-one]
The EC (150% of control) of the first is 1.9-fold lower: 0.0417 µM for the first, 0.0776 µM for the second.

Compared with `COc1cc(N2CCN(Cc3cccc(Cl)c3)C2=O)ccc1-c1cn[nH]c1` [Example 18, 1-[(3-Chlorophenyl)methyl]-3-[3-methoxy-4-(1H-pyrazol-4-yl)phenyl]imidazolidin-2-one], `COc1cc(N2CCN(Cc3cccc(F)c3)C2=O)ccc1-c1cn[nH]c1` [Example 19, 1-[(3-Fluorophenyl)methyl]-3-[3-methoxy-4-(1H-pyrazol-4-yl)phenyl]imidazolidin-2-one] is 8.4-fold lower in EC (150% of control): 0.395 µM for the first, 0.047 µM for the second.

`COc1cc(N2CCN(Cc3cccc(C(F)(F)F)c3)C2=O)ccc1-c1cn[nH]c1` [Example 20, 1-[3-Methoxy-4-(1H-pyrazol-4-yl)phenyl]-3-[[3-(trifluoromethyl)phenyl]methyl]imidazolidin-2-one] and `COc1cc(N2CCN(Cc3cccc(OC(F)(F)F)c3)C2=O)ccc1-c1cn[nH]c1` [Example 21, 1-[3-Methoxy-4-(1H-pyrazol-4-yl)phenyl]-3-[[3-(trifluoromethoxy)phenyl]methyl]imidazolidin-2-one] are within 1.5-fold of each other in EC (150% of control): 0.0086 µM for the first, 0.0092 µM for the second.

Compared with `CCOc1cccc(CN2CCN(c3ccc(-c4cn[nH]c4)c(OC)c3)C2=O)c1` [Example 22, 1-[(3-Ethoxyphenyl)methyl]-3-[3-methoxy-4-(1H-pyrazol-4-yl)phenyl]imidazolidin-2-one], `CCOc1cc(N2CCN(Cc3cccc(OC)c3)C2=O)ccc1-c1cn[nH]c1` [Example 32, 1-[3-Ethoxy-4-(1H-pyrazol-4-yl)phenyl]-3-[(3-methoxyphenyl)methyl]imidazolidin-2-one] is 11-fold higher in EC (150% of control): 0.0739 µM for the first, 0.835 µM for the second.

Compared with `COc1cc(N2CCC(Cc3ccccc3)C2=O)ccc1-c1cn[nH]c1` (stereo not drawn) [Example 23, 3-Benzyl-1-(3-methoxy-4-(1H-pyrazol-4-yl)phenyl)pyrrolidin-2-one], `COc1cc(N2CCC(Cc3cccc(Cl)c3)C2=O)ccc1-c1cn[nH]c1` (stereo not drawn) [Example 36, 3-[(3-Chlorophenyl)methyl]-1-[3-methoxy-4-(1H-pyrazol-4-yl)phenyl]pyrrolidin-2-one] is 2.7-fold higher in EC (150% of control): 0.612 µM for the first, 1.65 µM for the second.

Compared with `COc1cc(N2CCC(c3cccc(Cl)c3)C2=O)ccc1-c1cn[nH]c1` (stereo not drawn) [Example 25, 3-(3-Chlorophenyl)-1-(3-methoxy-4-(1H-pyrazol-4-yl)phenyl)pyrrolidin-2-one], `COc1cc(N2CCN(Cc3cccc(C)c3)C2=O)ccc1-c1cn[nH]c1` [Example 35, 1-[3-Methoxy-4-(1H-pyrazol-4-yl)phenyl]-3-(m-tolylmethyl)imidazolidin-2-one] is 40-fold higher in EC (150% of control): 0.0659 µM for the first, 2.65 µM for the second.

Going from `COc1cccc(CN2CCN(c3ccc(-c4cn[nH]c4)c(C)c3)C2=O)c1` [Example 28, 1-[(3-Methoxyphenyl)methyl]-3-[3-methyl-4-(1H-pyrazol-4-yl)phenyl]imidazolidin-2-one] to `COc1cccc(CN2CCN(c3ccc(-c4cn[nH]c4)c(Cl)c3)C2=O)c1` [Example 29, 1-[3-Chloro-4-(1H-pyrazol-4-yl)phenyl]-3-[(3-methoxyphenyl)methyl]imidazolidin-2-one], the EC (150% of control) falls from 1.22 µM to 0.366 µM (3.3-fold).

Going from `COc1cccc(CN2CCN(c3ccc(-c4cn[nH]c4)cc3F)C2=O)c1` [Example 30, 1-[2-Fluoro-4-(1H-pyrazol-4-yl)phenyl]-3-[(3-methoxyphenyl)methyl]imidazolidin-2-one] to `COc1cccc(CN2CCN(c3ccc(-c4cn[nH]c4)c(F)c3)C2=O)c1` [Example 31, 1-[3-Fluoro-4-(1H-pyrazol-4-yl)phenyl]-3-[(3-methoxyphenyl)methyl]imidazolidin-2-one], the EC (150% of control) falls from 0.0416 µM to 0.0157 µM (2.6-fold).

`COc1cc(N2CCN(Cc3ccccc3F)C2=O)ccc1-c1cn[nH]c1` [Example 33, 1-[(2-Fluorophenyl)methyl]-3-[3-methoxy-4-(1H-pyrazol-4-yl)phenyl]imidazolidin-2-one] and `COc1cc(N2CCN(Cc3ccccc3C)C2=O)ccc1-c1cn[nH]c1` [Example 34, 1-[3-Methoxy-4-(1H-pyrazol-4-yl)phenyl]-3-(o-tolylmethyl)imidazolidin-2-one] are within 1.5-fold of each other in EC (150% of control): 0.225 µM for the first, 0.2 µM for the second.
